Measurements reported in US9486447B2, “Compositions and methods for controlling neuronal excitation” (The General Hospital Corporation, priority 2011, dated 2016).

Assays:
[1] = system: larvae and adult zebrafish; experiment: Long-term toxicity testing in zebrafish; type: in vivo
Procedure: Optovin is a rhodanine-containing small molecule with no previously annotated biological activity (FIG. 1D). […] Motor behavior in optovin-treated animals is elicited by radiation stimulus intensitites greater than 1.6 μW/mm^2 (FIG. 1G). […] To determine the long-term effects of optovin exposure on development, behavior and survival, the development, behavior and survival of larvae and adult zebrafish exposed to optovin (10 μM) for 96 hours were analyzed. […] Thus, optovin is a novel behavior-modifying compound that causes rapid and reversible motor excitation in response to violet light stimuli.
To determine the long-term effects of optovin exposure on development, behavior and survival, the development, behavior and survival of larvae (n=150) and adult zebrafish (n=2) exposed to 10 μM optovin for 96 hours was analyzed.

[2] = Reactive oxygen species generation (singlet oxygen sensor green, NBT); type: physicochemical
Excerpt: How might optovin activate TRPA1? When molecules absorb light, photons can excite electrons from their ground state to a […] via intersystem crossing^37. These photoactivated compounds can then undergo reactions by transferring energy or electrons to target molecules, including aqueous molecular oxygen. Optovin is a yellow-colored compound with peak absorbance at 415 nm (FIG. 4A). To determine if optovin is photochemically reactive, it was exposed to increasing intensities of 415 nm light and assayed for reactive oxygen species (ROS) generation.
Assay for singlet oxygen generation using singlet oxygen sensor green (SOSG) UV-vis absorption spectra were recorded at 20 uM in methanol using an Evolution 300 UV-Vis Spectrophotometer (Thermo Fisher Scientific Inc., Waltham, Mass.). 96-well black-sided plates were used for fluorescent probe experiments. SOSG (Molecular Probes Invitrogen, Eugene, Oreg.) as a 1 mM stock solution in DMF was added to give final concentration of 5 μM SOSG, to optovin and analogues dissolved as 5 μM solutions in 200 μL 50% H2O/CH3CN preloaded in 96-well plates. An Omnilux Clear-U LED light source (Photo Therapeutics Inc), Carlsbad, Calif.) that emits blue light 415-nm+15-nm as a homogeneous spot with an irradiance of 50 mW/cm^2 measured with a power meter (model DMM 199 with 201 standard head; Coherent, Santa Clara, Calif.) that covers an area of one half of a 96-well plate.
Fluorescence spectrophotometry was carried out with SpectraMax M5 plate reader (Molecular Devices, Sunnyvale, Calif.) using excitation and emission at 504 and 525-nm Fluorescence was read after each successive increment of blue light was delivered. As a positive control for a known photosensitizer that absorbs 415-nm light with a quantum yield of singlet oxygen of approximately 0.6 we used a conjugate between polyethylenimine and chlorin(e6) (PEI-ce6)^46.

human TrpA1 (hTrpA1) = biological target: T1, human TrpA1 (hTrpA1) (Homo sapiens, UniProt O75762); experiment: Whole-cell patch clamp in transfected HEK293T cells; type: cell-based; details: 10 μM, following photo-stimulation (405 nm)
T1 construct: expressed in transfected cells; host or cells: HEK293 / HEK293T
Procedure: To determine if TRPA1 is sufficient for optovin activity, current density amplitudes were analyzed via whole-cell patch clamping in HEK293T cells transfected with the human TrpA1 (hTrpA1) gene.
HEK293 cells were plated upon poly-lysine coated cover slips and transiently transfected with human TRPA1. Voltage clamp recordings were made in the whole-cell configuration 48 hours after transfection using glass electrodes with 2-4M ohm resistance when filled with (in mM) 140 CsCl, 2 Mg2ATP3, 2 MgCl, 5 EGTA, and 10 HEPES (pH adjusted to 7.2 with CsOH) and while bathed at room temperature in extracellular solution containing (in mM) 150 NaCl, 5.4 KCl, 1.8 CaCl2, 1 MgCl, and 5 mM HEPES (pH adjusted to 7.4 with NaOH). A voltage ramp protocol from −80 mV to +80 mV over 400 ms was repeated every 5 seconds during the following conditions: while the cell was dialyzed by the pipette, followed by at least 60 seconds of illumination with 405 nm light, after which optovin (10 μM) containing extracellular solution was perfused into the bath, followed by 1 minute of illumination. Current elicited at holding potentials of +/−70 mV were used to characterize TRPA1 activation.

[3] = biological target: T2, hTRPA1 C633S/C856S double mutant (Homo sapiens, UniProt O75762, C633S/C856S); experiment: Calcium imaging of transfected HEK cells; type: cell-based; details: compared with WT channels
T2 construct: expressed in transfected cells; host or cells: HEK293
Procedure: (§1) Reactive electrophilic compounds activate TRPA1 channels through the covalent modification of specific cysteine residues including those at amino acid positions 621, 633, and 856. Point mutations in these cysteines can reduce hTRPA1 activation by specific ligands without disrupting overall channel function^39,40. To determine if these cysteine residues are also important for TRPA1 activation by optovin, intracellular calcium levels were measured in cells transfected with wildtype and mutant hTRPA1 channels. […] Rhodanine and hydantoin are photoelectric moieties used in photovoltaic panels and other photochemical applications^41,42. Nevertheless, photosensitization alone is insufficient to grant optovin its unusual biological activity. For example, optovin is phenotypically unique compared to 171 additional rhodanine-containing compounds contained in the screening library (data not shown).
(§2) HEK293 cells were plated onto poly-lysine-coated glass bottom culture dishes (MatTek Corp), and grown in Dulbecco's Modified Eagle's Medium (DMEM, Sigma) supplemented with 10% fetal bovine serum and 100 U/mL penicillin and 100 μg/ml streptomycin. After 24 hrs, cells were transfected, according to manufacturer's instructions, in Opti-MEM media, using 4 μl lipofectamine 2000 (Invitrogen), 0.5 ug EGFP in pcDNA, and 0.3 μg TrpA1 DNA per dish. Media was replaced after 2 hours, and cells were cultured for an additional 17 hours. As previously described for neurons, HEK cells were washed with assay buffer (HBSS Gibco 14025, supplemented with 9 mM HEPES, 11 mM D-glucose, 0.1% fatty-acid free BSA, pH 7.3) and incubated for 1 h with 2 μM Fura2-AM (Invitrogen) with 0.2% pluronic (Invitrogen) in assay buffer in the dark at room temperature. The cells were then washed with assay buffer and allowed to equilibrate at room temperature for 30 min prior to imaging. At the start of the imaging session for each dish, cells were replaced with DMSO-assay buffer. After 50 seconds of imaging, assay buffer was aspirated by hand, and replaced with 100 μM optovin dissolved in the DMSO-assay buffer solution. […]

hTRPA1 C621S = biological target: T3, hTRPA1 C621S (Homo sapiens, UniProt O75762, C621S); experiment: Calcium imaging of transfected HEK cells; type: cell-based; details: compared with WT channels
T3 construct: expressed in transfected cells; host or cells: HEK293
Procedure: as §1, §2

hTRPA1 C633S = biological target: T4, hTRPA1 C633S (Homo sapiens, UniProt O75762, C633S); experiment: Calcium imaging of transfected HEK cells; type: cell-based; details: compared with WT channels
T4 construct: expressed in transfected cells; host or cells: HEK293
Procedure: as §1, §2

T3 sequence (O75762 whole entry C621S): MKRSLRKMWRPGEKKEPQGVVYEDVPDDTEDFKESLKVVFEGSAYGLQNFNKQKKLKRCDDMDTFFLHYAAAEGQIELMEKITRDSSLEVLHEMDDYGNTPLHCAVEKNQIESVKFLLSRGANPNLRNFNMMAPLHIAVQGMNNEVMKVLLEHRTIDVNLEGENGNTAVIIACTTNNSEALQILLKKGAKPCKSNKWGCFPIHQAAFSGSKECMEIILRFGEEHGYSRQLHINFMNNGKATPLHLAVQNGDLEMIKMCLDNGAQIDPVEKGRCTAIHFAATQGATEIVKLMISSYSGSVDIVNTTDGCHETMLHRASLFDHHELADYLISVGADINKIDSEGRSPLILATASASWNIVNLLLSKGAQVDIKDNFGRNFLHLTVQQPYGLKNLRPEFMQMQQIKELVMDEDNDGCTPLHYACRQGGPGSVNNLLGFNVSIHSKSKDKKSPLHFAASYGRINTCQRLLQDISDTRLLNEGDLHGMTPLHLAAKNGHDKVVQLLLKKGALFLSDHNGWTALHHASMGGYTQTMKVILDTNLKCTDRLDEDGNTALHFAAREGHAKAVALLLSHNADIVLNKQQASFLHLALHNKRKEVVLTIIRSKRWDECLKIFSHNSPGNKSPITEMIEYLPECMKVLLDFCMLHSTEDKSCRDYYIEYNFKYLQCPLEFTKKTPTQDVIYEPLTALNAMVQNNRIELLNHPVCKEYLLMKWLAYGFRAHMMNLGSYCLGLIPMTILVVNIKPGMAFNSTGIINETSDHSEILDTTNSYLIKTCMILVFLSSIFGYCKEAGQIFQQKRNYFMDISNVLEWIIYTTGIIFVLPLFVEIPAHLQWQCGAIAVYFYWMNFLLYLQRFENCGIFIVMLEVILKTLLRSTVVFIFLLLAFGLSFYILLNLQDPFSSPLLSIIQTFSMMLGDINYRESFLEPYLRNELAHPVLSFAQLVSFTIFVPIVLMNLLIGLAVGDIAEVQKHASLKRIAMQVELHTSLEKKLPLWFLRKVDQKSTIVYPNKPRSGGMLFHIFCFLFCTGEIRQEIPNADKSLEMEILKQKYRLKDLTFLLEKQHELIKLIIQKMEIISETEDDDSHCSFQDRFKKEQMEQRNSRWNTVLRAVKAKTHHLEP
T4 sequence (O75762 whole entry C633S): as the sequence (O75762 whole entry C621S) above, with S621C, C633S counted along it
T1 sequence (O75762 whole entry): as the sequence (O75762 whole entry C621S) above, with S621C counted along it
T2 sequence (O75762 whole entry C633S/C856S): as the sequence (O75762 whole entry C621S) above, with S621C, C633S, C856S counted along it

## Cc1cc(/C=C2/SC(=S)NC2=O)c(C)n1-c1cccnc1 [optovin]
[1]; 10 μM for 96 hours, larvae and adult zebrafish
  differences in appearance, touch response, heart rate, fin movements, morphology or percentage survival vs untreated: No differences were identified
[1]; 10 μM, larval or adult zebrafish
  survival rates: does not affect survival rates
[1]; after 48 hours of treatment
  signs of toxicity: No signs of toxicity were observed
[2]; 415 nm light
  hydroxyl radical and superoxide generation: neither hydroxyl radicals nor superoxide
  singlet oxygen generation: generates singlet oxygen
[2]; estimated by comparison with PEI-ce6
  singlet oxygen quantum yield: about 0.04
Human TrpA1 (hTrpA1)
  current density amplitudes in response to positive voltage steps: significantly increased
[3]
  response to light and optovin (intracellular calcium): significantly decreased response
hTRPA1 C621S
  response to light and optovin (intracellular calcium): significantly decreased response
hTRPA1 C633S
  response to light and optovin (intracellular calcium): significantly decreased response
